{"source": "ChEMBL document CHEMBL5678818", "about": "“Discovery of potent SOS1 inhibitors that block RAS activation via disruption of the RAS-SOS1 interaction” (Proc Natl Acad Sci U S A, 2019)", "key": {"[1]": {"test_system": "Receptor-type tyrosine-protein kinase FLT3 (Homo sapiens), P36888 [R834Q]", "assay": "Inhibition of FLT3 R834Q mutant (unknown origin) assessed as residual activity at 100 nM by KINOMEscan analysis relative to control"}, "[2]": {"biological_target": "T1, Son of sevenless homolog 1 (Homo sapiens) (UniProt Q07889)", "T1 sequence (whole entry)": "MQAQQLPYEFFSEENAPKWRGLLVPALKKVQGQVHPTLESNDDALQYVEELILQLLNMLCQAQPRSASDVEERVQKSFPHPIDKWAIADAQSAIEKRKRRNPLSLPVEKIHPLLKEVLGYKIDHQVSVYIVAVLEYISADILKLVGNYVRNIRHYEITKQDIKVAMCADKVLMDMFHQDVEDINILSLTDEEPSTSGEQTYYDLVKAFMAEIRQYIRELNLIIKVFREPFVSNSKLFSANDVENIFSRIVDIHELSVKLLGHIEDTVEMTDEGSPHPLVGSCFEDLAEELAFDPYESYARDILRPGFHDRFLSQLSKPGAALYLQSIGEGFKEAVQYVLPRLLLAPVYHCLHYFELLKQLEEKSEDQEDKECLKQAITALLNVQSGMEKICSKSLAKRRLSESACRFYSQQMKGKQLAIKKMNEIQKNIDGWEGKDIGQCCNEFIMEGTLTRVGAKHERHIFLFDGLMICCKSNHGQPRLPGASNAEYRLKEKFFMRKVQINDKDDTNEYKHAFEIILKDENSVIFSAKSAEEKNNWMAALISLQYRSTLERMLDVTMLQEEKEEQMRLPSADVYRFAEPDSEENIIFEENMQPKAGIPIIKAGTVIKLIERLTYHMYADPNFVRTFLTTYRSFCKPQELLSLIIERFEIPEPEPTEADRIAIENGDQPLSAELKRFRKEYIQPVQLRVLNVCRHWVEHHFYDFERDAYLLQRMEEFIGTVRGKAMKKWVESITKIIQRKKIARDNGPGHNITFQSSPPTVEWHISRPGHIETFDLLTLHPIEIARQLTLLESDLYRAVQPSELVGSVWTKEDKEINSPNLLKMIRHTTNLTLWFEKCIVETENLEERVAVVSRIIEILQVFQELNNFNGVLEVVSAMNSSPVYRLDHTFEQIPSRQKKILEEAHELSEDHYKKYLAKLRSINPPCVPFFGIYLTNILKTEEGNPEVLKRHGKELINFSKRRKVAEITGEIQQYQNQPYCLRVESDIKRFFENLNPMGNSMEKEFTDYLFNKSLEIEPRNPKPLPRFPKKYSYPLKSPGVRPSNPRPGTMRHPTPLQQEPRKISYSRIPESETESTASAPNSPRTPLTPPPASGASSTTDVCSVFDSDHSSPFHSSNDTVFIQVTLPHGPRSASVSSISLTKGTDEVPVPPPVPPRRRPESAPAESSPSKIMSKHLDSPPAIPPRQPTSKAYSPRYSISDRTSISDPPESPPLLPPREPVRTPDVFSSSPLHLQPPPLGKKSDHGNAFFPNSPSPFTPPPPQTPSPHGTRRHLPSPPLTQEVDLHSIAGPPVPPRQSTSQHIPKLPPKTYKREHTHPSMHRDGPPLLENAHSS", "assay": "Binding affinity to N-terminal His10-tagged wild-type recombinant human SOS1 catalytic domain (564 to 1049 residues) expressed in Escherichia coli assessed as change in Gibbs free energy by ITC analysis"}, "[3]": {"biological_target": "T2, Bone morphogenetic protein receptor type-2 (Homo sapiens) (UniProt Q13873)", "T2 sequence (whole entry)": "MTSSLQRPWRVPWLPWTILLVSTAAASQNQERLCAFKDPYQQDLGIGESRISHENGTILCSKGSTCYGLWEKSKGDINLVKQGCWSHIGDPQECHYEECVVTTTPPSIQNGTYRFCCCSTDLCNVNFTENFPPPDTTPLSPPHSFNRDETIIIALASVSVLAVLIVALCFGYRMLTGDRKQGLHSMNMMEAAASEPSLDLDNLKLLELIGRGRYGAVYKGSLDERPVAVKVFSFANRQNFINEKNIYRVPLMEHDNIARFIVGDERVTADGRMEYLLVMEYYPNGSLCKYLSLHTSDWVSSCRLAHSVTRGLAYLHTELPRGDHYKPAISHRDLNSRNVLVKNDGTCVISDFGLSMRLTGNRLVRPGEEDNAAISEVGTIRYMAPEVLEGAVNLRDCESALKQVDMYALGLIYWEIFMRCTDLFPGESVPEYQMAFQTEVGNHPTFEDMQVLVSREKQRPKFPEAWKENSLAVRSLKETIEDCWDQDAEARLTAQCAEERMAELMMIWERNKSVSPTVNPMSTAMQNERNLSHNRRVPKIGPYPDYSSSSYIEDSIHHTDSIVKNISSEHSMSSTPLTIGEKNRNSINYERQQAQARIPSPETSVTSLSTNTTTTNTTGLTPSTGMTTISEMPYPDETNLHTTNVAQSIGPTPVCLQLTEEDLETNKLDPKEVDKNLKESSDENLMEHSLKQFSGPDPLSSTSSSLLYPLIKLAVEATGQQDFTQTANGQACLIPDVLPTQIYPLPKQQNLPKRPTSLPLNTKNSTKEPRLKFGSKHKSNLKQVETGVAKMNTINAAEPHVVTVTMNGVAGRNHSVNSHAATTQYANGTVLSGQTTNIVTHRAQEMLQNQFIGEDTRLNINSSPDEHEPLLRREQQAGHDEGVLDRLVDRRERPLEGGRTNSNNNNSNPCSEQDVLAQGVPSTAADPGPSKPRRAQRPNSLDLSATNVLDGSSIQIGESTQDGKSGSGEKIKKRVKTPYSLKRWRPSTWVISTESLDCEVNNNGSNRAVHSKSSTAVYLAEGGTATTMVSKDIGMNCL", "assay": "Inhibition of BMPR2 (unknown origin) assessed as residual activity at 100 nM by KINOMEscan analysis relative to control"}, "[4]": {"biological_target": "Calcium/calmodulin-dependent protein kinase type II subunit beta (Homo sapiens) (UniProt Q13554)", "sequence (Q13554 whole entry)": "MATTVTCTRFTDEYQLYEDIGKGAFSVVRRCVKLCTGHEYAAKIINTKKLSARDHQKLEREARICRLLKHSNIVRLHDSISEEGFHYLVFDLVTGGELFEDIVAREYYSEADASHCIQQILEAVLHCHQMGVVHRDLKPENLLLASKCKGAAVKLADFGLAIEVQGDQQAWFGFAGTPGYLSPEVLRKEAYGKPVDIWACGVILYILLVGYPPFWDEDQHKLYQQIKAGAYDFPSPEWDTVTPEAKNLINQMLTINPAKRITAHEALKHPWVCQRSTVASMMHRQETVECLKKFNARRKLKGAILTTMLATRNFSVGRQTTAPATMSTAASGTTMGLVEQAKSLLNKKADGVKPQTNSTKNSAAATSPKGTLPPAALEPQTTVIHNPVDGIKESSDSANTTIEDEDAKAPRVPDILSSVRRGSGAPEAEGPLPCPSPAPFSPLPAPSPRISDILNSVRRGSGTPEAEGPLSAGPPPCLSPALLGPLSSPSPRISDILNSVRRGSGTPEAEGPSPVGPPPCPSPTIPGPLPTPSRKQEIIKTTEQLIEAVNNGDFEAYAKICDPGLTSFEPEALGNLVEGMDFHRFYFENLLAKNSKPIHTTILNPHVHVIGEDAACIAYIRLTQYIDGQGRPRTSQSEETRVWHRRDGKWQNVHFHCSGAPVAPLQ", "assay": "Inhibition of CAMK2B (unknown origin) assessed as residual activity at 100 nM by KINOMEscan analysis relative to control"}, "[5]": {"biological_target": "Serine/threonine-protein kinase N2 (Homo sapiens) (UniProt Q16513)", "sequence (Q16513 whole entry, looked up)": "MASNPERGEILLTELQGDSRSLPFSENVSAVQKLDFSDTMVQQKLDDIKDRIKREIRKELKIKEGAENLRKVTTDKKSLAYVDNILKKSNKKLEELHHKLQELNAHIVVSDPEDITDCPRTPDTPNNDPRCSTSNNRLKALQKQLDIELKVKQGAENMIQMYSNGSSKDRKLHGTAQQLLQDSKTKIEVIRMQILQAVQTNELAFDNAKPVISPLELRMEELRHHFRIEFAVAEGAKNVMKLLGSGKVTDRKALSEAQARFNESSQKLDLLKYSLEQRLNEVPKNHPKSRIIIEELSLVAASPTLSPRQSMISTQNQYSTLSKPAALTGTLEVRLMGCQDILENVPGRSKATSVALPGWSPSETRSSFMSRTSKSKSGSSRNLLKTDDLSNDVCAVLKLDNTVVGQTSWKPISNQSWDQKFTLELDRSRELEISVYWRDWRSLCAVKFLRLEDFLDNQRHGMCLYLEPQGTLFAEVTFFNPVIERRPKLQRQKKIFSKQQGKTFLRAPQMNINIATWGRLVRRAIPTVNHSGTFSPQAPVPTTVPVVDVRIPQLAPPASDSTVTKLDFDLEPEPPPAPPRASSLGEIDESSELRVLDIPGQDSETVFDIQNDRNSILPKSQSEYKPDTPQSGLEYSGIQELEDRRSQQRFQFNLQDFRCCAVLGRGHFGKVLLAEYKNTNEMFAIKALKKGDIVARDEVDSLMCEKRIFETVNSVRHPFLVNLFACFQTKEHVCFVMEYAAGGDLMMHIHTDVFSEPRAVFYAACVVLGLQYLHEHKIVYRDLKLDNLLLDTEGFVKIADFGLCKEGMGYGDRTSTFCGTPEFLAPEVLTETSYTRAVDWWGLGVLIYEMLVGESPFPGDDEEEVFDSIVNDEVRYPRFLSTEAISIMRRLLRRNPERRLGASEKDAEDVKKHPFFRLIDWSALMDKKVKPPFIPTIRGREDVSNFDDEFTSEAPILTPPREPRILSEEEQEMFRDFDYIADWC", "assay": "Inhibition of PKN2 (unknown origin) assessed as residual activity at 100 nM by KINOMEscan analysis relative to control"}, "[6]": {"biological_target": "Mitogen-activated protein kinase kinase kinase 1 (Homo sapiens) (UniProt Q13233)", "sequence (Q13233 whole entry)": "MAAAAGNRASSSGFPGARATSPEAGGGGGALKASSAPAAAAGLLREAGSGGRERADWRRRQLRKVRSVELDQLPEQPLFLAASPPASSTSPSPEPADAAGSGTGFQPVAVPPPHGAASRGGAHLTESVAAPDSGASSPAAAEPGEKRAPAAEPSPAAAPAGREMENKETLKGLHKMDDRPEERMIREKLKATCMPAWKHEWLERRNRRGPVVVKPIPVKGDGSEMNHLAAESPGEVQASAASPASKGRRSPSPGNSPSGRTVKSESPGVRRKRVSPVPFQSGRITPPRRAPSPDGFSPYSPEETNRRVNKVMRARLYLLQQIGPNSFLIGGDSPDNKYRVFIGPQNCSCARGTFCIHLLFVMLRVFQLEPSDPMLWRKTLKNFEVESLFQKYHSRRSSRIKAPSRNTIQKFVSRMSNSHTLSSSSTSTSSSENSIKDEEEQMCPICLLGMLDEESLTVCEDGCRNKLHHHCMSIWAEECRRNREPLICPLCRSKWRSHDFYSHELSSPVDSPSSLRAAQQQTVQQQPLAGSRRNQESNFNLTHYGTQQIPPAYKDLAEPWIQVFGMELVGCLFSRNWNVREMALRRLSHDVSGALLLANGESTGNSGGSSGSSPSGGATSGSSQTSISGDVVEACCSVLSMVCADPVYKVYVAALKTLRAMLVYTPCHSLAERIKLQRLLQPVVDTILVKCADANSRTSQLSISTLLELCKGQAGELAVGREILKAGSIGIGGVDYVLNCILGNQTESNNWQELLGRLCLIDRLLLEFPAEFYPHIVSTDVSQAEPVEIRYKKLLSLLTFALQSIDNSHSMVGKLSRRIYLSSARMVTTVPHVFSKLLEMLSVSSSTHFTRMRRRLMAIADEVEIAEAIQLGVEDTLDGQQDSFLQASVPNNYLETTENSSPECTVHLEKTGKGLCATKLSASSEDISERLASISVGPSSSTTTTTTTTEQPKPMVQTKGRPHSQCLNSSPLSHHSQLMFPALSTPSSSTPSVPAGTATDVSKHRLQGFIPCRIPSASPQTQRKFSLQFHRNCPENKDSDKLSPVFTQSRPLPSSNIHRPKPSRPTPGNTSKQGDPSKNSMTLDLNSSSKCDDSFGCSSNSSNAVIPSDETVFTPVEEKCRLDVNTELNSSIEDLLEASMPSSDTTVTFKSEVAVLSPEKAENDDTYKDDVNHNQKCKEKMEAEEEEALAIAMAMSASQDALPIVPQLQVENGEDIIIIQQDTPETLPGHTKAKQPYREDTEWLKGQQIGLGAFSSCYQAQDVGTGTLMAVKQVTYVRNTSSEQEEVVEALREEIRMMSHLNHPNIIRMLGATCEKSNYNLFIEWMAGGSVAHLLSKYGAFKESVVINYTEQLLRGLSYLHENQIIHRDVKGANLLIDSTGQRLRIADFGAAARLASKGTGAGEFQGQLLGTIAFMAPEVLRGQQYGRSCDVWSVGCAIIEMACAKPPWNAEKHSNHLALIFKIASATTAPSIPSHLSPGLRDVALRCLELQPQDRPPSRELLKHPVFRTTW", "assay": "Inhibition of MAP3K1 (unknown origin) assessed as residual activity at 100 nM by KINOMEscan analysis relative to control"}, "[7]": {"biological_target": "Glycogen synthase kinase-3 alpha (Homo sapiens) (UniProt P49840)", "sequence (P49840 2-483 limits assumed)": "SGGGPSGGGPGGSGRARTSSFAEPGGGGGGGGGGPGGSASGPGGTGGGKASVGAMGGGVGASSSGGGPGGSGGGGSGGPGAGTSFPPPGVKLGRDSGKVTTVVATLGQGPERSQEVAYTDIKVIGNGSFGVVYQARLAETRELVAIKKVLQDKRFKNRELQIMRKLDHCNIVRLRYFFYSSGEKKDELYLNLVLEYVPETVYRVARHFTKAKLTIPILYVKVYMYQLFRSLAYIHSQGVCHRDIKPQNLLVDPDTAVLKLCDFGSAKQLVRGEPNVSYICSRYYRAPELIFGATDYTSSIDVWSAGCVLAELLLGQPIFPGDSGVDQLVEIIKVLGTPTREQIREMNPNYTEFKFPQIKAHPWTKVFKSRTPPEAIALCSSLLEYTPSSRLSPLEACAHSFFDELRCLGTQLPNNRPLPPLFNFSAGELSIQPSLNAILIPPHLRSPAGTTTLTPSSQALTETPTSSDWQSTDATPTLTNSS", "assay": "Inhibition of GSK3A (unknown origin) assessed as residual activity at 100 nM by KINOMEscan analysis relative to control"}, "[8]": {"biological_target": "Phosphorylase b kinase gamma catalytic chain, skeletal muscle/heart isoform (Homo sapiens) (UniProt Q16816)", "sequence (Q16816 whole entry, looked up, canonical isoform)": "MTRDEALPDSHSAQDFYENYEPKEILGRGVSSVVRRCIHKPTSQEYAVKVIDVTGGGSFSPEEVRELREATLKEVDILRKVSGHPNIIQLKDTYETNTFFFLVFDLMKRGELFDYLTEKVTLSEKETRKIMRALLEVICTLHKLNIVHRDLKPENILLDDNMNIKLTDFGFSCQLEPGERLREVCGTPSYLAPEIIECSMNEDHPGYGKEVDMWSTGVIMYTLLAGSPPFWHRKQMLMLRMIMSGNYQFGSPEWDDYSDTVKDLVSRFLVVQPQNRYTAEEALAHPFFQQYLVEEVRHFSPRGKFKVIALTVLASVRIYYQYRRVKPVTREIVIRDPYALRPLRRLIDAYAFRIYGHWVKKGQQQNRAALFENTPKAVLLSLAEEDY", "assay": "Inhibition of PHKG1 (unknown origin) assessed as residual activity at 100 nM by KINOMEscan analysis relative to control"}}}
{"smiles": "COc1cc2ncnc(N[C@H](C)c3cccc4ccccc34)c2cc1OC", "values": [{"measurement": "Activity", "setting": "[1]", "result": 93, "unit": "%"}, {"measurement": "deltaG", "setting": "[2]", "result": -8.6, "unit": "kcal/mol"}, {"measurement": "Activity", "setting": "[3]", "result": 97, "unit": "%"}, {"measurement": "Activity", "setting": "[4]", "result": 100, "unit": "%"}, {"measurement": "Activity", "setting": "[5]", "result": 88, "unit": "%"}, {"measurement": "Activity", "setting": "[6]", "result": 100, "unit": "%"}, {"measurement": "Activity", "setting": "[7]", "result": 75, "unit": "%"}, {"measurement": "Activity", "setting": "[8]", "result": 100, "unit": "%"}]}
